Measurements reported in patent EP4389746A2, “P2X3 RECEPTOR ANTAGONISTS” (Recordati Industria Chimica E Farmaceutica SPA, priority 2022, dated 2024).

Target: T1, human P2X3 receptor (Homo sapiens, UniProt P56373)
T1 construct: expressed in transfected cells; host or cells: CHO-K1
T1 sequence (P56373 1-397): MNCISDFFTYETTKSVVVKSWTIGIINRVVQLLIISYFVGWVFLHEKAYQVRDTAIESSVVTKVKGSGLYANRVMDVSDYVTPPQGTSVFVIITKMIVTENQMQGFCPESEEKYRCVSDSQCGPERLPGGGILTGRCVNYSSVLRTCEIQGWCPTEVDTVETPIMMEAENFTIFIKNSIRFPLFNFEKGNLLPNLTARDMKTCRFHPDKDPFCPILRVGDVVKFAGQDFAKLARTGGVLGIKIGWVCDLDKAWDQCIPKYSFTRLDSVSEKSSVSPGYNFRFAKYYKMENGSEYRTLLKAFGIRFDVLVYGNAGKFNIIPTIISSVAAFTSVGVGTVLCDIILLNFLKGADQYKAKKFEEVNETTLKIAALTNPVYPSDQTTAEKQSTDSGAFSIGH
Assay: Calcium luminescence measurement: human P2X3 receptor activity inhibition (CHO-K1 cells, photoprotein readout, FLEXSTATION)
Assay type: cell-based
Conditions: CHO-K1 cells co-expressing human P2X3 and Ca2+ sensitive photoprotein; agonist α,β-Met-ATP; read-out: h-P2X3 IC50
Procedure: Determination of human P2X3 receptor activity inhibition
The assay for the human purinergic P2RX3 receptor has been adapted to the internal screening instrumentation using the FLEXSTATION as reader and a photoprotein as luminescent readout. The assay consists of CHO-K1 cells recombinantly co-expressing the human P2rx3 receptor and a Ca^2+ sensitive photoprotein. Cells are maintained in DMEM F-12 (1:1) mixture (LONZA cat. n° BE04-687F/U1) supplemented with 9 mL of 100 mM Sodium Pyruvate (LONZA cat. n° BE13-115E), 29 mL of 7.5% Sodium Bicarbonate (LONZA cat. n° BE17-613E), 5.5 mL of 1 M Hepes (LONZA cat. n° BE17-737E), 5 mL of 100X Penicillin/Streptomycin mixture (LONZA cat. n° DE17-602E) and 50 mL of Fetal Bovine Serum (Sigma cat. n° F7524), 1 mg/mL G418 disulfate salt (Sigma cat. n° G8168) and 5 µg/ml Puromycin dihydrochloride (Sigma cat. n° P9620). Standard propagation conditions consist of seeding in a P75 flask twice a week, recovering about 20×10^6 cells, corresponding to about 80% confluency. Cells were seeded into black-walled clear bottom 96 well plates at a density of 40000 cells/well in a complete medium. After 24 h the culture medium was replaced with 200 µL/well of coelenterazine in Tyrode's buffer (Standard Tyrode's buffer: in house solution, 130 mM NaCl, 5 mM KCl, 2 mM CaCl2, 5 mM NaHCO3, 1 mM MgCl2, 20 mM HEPES, pH 7.4). Coelenterazine was purchased from BIOSYNTH (cat. n° C-7001). 10 mM stock solution was prepared in DMSO and glutathione and stored at -20° C. The plates were incubated for 4 hours at 37°C, and injected with 10 µL/well of test compounds at 25X concentration in Tyrode's buffer. After 4 minutes a second injection of 50 µL/well of 5X α,β-Met-ATP in Tyrode's buffer (α,β-Met-ATP: from Tocris (cat. n° 3209), was dissolved at 100 mM in water and stored in aliquots at -20°C) was performed and the signal of the emitted luminescence was recorded by FLEXSTATION III (Molecular Devices). […]
The inhibition curves of the tested compounds at cloned P2X3 receptor were determined by nonlinear regression analysis using software Prism 5.0 (Graphpad, San Diego, CA). The IC50 values and pseudo-Hill slope coefficients were estimated by the program.

IC50	Compound
1.08 µM	CC(C)[C@H]1CN2C(=O)N(Cc3ccc(Cl)cc3)c3cc(N4CCOCC4)cnc3C2=N1 (single isomer, unassigned) [Example 10]
0.113 µM	CC(C)[C@@H]1CN2C(=O)N(Cc3ccc(Cl)cc3)c3cc(N4CCOCC4)cnc3C2=N1 (single isomer, unassigned) [Example 11]
0.0647 µM	CC(C)C1C(=O)N=C2c3ncc(N4CCOCC4)cc3N(Cc3ccc(Cl)cc3)C(=O)N21 (single isomer, unassigned) [Example 23, (R or S)-6-[(4-Chlorophenyl)methyl]-8-(morpholin-4-yl)-3-(propan-2-yl)imidazo[1,2-c]pyrido[2,3-e]pyrimidine-2,5(3H,6H)-dione]
0.0562 µM	CC(C)C1C(=O)N=C2c3ncc(N4CCOCC4)cc3N(Cc3ccc(Cl)cc3)C(=O)N21 (single isomer, unassigned) [Example 24, (S or R)-6-[(4-Chlorophenyl)methyl]-8-(morpholin-4-yl)-3-(propan-2-yl)imidazo[1,2-c]pyrido[2,3-e]pyrimidine-2,5(3H,6H)-dione]
0.703 µM	CC(C)C1CN=C2c3ncc(N4CCOCC4)cc3N(Cc3ccc(Cl)cc3)C(=O)N21 (stereo not shown) [Example 1, 6-(4-Chlorobenzyl)-8-(morpholin-4-yl)-3-(propan-2-yl)-2,6-dihydroimidazo[1,2-c]pyrido[2,3-e]pyrimidin-5(3H)-one]
1.01 µM	CC1(C)CN2C(=O)N(Cc3ccc(Cl)cc3)c3cc(N4CCOCC4)cnc3C2=N1 [Example 2, 6-(4-Chlorobenzyl)-2,2-dimethyl-8-(morpholin-4-yl)-2,6-dihydroimidazo[1,2-c]pyrido[2,3-e]pyrimidin-5(3H)-one]
0.0273 µM	COc1cc(CN2C(=O)N3CC(C(C)(C)C)N=C3c3ncc(N4CCOCC4)cc32)cc(OC)c1 (stereo not shown) [Example 3, 2-tert-Butyl-6-(3,5-dimethoxybenzyl)-8-(morpholin-4-yl)-2,6-dihydroimidazo[1,2-c]pyrido[2,3-e]pyrimidin-5(3H)-one]
0.181 µM	CC(C)(C)C1CN2C(=O)N(Cc3ccc(Cl)cc3)c3cc(N4CCOCC4)cnc3C2=N1 (stereo not shown) [Example 4, 2-tert-Butyl-6-(4-chlorobenzyl)-8-(morpholin-4-yl)-2,6-dihydroimidazo[1,2-c]pyrido[2,3-e]pyrimidin-5(3H)-one]
0.642 µM	CC(C)C1CN2C(=O)N(Cc3ccc(Cl)cc3)c3cc(N4CCC(N)CC4)cnc3C2=N1 (stereo not shown) [Example 7, 8-(4-Aminopiperidin-1-yl)-6-[(4-chlorophenyl)methyl]-2-(propan-2-yl)-2,6-dihydroimidazo[1,2-c]pyrido[2,3-e]pyrimidin-5(3H)-one]
1.38 µM	CC(C)C1CN2C(=O)N(Cc3ccc(Cl)cc3)c3cc(N4CCNCC4)cnc3C2=N1 (stereo not shown) [Example 8, 6-[(4-Chlorophenyl)methyl]-8-(piperazin-1-yl)-2-(propan-2-yl)-2,6-dihydroimidazo[1,2-c]pyrido[2,3-e]pyrimidin-5(3H)-one]
0.054 µM	CC(C)(CO)C1CN2C(=O)N(Cc3ccc(Cl)cc3)c3cc(N4CCOCC4)cnc3C2=N1 (stereo not shown) [Example 12, 6-(4-Chlorobenzyl)-2-(1-hydroxy-2-methylpropan-2-yl)-8-(morpholin-4-yl)-2,6-dihydroimidazo[1,2-c]pyrido[2,3-e]pyrimidin-5(3H)-one]
0.865 µM	CC(C)C1CN2C(=O)N(Cc3ccc(Cl)cn3)c3cc(N4CCOCC4)cnc3C2=N1 (stereo not shown) [Example 13, 6-[(5-Chloropyridin-2-yl)methyl]-8-(morpholin-4-yl)-2-(propan-2-yl)-2,6-dihydroimidazo[1,2-c]pyrido[2,3-e]pyrimidin-5(3H)-one]
0.822 µM	COc1ccc(CN2C(=O)N3CC(C(C)C)N=C3c3ncc(N4CCOCC4)cc32)nc1 (stereo not shown) [Example 14, 6-[(5-Methoxypyridin-2-yl)methyl]-8-(morpholin-4-yl)-2-(propan-2-yl)-2,6-dihydroimidazo[1,2-c]pyrido[2,3-e]pyrimidin-5(3H)-one]
11.8 µM	CC(C)C1CN2C(=O)N(Cc3ccc(Cl)cc3)c3cc(NC(CO)CO)cnc3C2=N1 (stereo not shown) [Example 15, 6-[(4-Chlorophenyl)methyl]-8-[(1,3-dihydroxypropan-2-yl)amino]-2-(propan-2-yl)-2,6-dihydroimidazo[1,2-c]pyrido[2,3-e]pyrimidin-5(3H)-one]
0.872 µM	CC(C)C1CN2C(=O)N(Cc3ccc(Cl)cc3)c3cc(NC4CCOCC4)cnc3C2=N1 (stereo not shown) [Example 16, 6-[(4-Chlorophenyl)methyl]-8-[(oxan-4-yl)amino]-2-(propan-2-yl)-2,6-dihydroimidazo[1,2-c]pyrido[2,3-e]pyrimidin-5(3H)-one]
0.123 µM	CC(C)C1C(=O)N=C2c3ncc(N4CCC(=O)CC4)cc3N(Cc3ccc(Cl)cc3)C(=O)N21 (stereo not shown) [Example 25, 6-[(4-Chlorophenyl)methyl]-8-(4-oxopiperidin-1-yl)-3-(propan-2-yl)imidazo[1,2-c]pyrido[2,3-e]pyrimidine-2,5(3H,6H)-dione]
0.301 µM	COc1ccc(Cn2c(=O)n3c(C(C)(C)OC)nnc3c3ncc(N4CCOCC4)cc32)cc1 [Example 33, 6-(4-Methoxybenzyl)-3-(2-methoxypropan-2-yl)-8-(morpholin-4-yl)pyrido[2,3-e][1,2,4]triazolo[4,3-c]pyrimidin-5(6H)-one]
0.339 µM	COc1ccc(Cn2c(=O)n3c(C(C)(C)C)nnc3c3ncc(N4CCC(OC)CC4)cc32)cc1 [Example 37, 3-tert-Butyl-6-[(4-methoxyphenyl)methyl] -8-(4-methoxypiperidin-1-yl)pyrido[2,3-e][1,2,4]triazolo[4,3-c]pyrimidin-5(6H)-one]
1.26 µM	CC(C)c1nnc2c3ncc(N4CCC(=O)CC4)cc3n(Cc3ccc(Cl)cc3)c(=O)n12 [Example 39, 6-[(4-Chlorophenyl)methyl]-8-(4-oxopiperidin-1-yl)-3-(propan-2-yl)pyrido[2,3-e][1,2,4]triazolo[4,3-c]pyrimidin-5(6H)-one]
0.491 µM	COc1ccc(Cn2c(=O)n3c(C(C)(C)C)nnc3c3ncc(N4CCC(N)CC4)cc32)cc1 [Example 40, 8-(4-Aminopiperidin-1-yl)-3-tert-butyl-6-[(4-methoxyphenyl)methyl]pyrido[2,3-e][1,2,4]triazolo[4,3-c]pyrimidin-5(6H)-one]
1.17 µM	COc1cc(Cn2c(=O)n3c(C(C)(C)C)nnc3c3ncc(N4CCOCC4)cc32)ccc1F [Example 42, 3-tert-Butyl-6-[(4-fluoro-3-methoxyphenyl)methyl] -8-(morpholin-4-yl)pyrido[2,3-e][1,2,4]triazolo[4,3-c]pyrimidin-5(6H)-one]
2.55 µM	COC(C)(C)c1nnc2c3nnc(N4CCN(C(=O)OC(C)(C)C)CC4)cc3n(Cc3ccc(Cl)cc3)c(=O)n12 [Example 45, tert-Butyl 4-{6-[(4-chlorophenyl)methyl]-3-(2-methoxypropan-2-yl)-5-oxo-5,6-dihydro[1,2,4]triazolo[4',3':1,6]pyrimido[5 ,4-c]pyridazin-8-yl}piperazine-1-carboxylate]
0.322 µM	COC(C)(C)c1nnc2c3nnc(N4CCNCC4)cc3n(Cc3ccc(Cl)cc3)c(=O)n12 [Example 46, 6-[(4-Chlorophenyl)methyl]-3-(2-methoxypropan-2-yl)-8-(piperazin-1-yl)[1,2,4]triazolo[4',3': 1,6]pyrimido[5,4-c]pyridazin-5(6H)-one]
0.242 µM	COC(C)(C)c1nnc2c3nnc(N4CCN(C(C)=O)CC4)cc3n(Cc3ccc(Cl)cc3)c(=O)n12 [Example 47, 8-(4-Acetylpiperazin-1-yl) -6-[(4-chlorophenyl)methyl]-3-(2-methoxypropan-2-yl)[1,2,4]triazolo[4',3': 1,6]pyrimido[5,4-c]pyridazin-5(6H)-one]

Compound	IC50
3-tert-Butyl-6-[(4-chlorophenyl)methyl] -8-[4-(hydroxymethyl)piperidin-1-yl]pyrido[2,3-e][1,2,4]triazolo[4,3-c]pyrimidin-5(6H)-one [Example 41]	0.0095 µM
